Measured values taken from US20180201592A1, “2-AMINO-1,3,4-THIADIAZINE AND 2-AMINO-1,3,4-OXADIAZINE BASED ANTIFUNGAL AGENTS” (F2G Limited, priority 2015, published 2018).
Converted amounts (≈) assume the structure as drawn. Where two headings read alike, the source gives them in different places.

Assays:
C. tropicalis = test: Minimum inhibitory concentration, RPMI medium; assay type: cell-based; settings: banded MIC grade
Outline: (§1)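 Compound stock was made at 5 mg/mL in DMSO, diluted in sterile water and serially doubled in water, then tested in RPMI 1640 medium. Plates were incubated 24-48 hrs at 35° C, and growth was scored as optical density at 485 nm.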

C. albicans = test: Minimum inhibitory concentration, RPMI medium; assay type: cell-based; settings: banded MIC grade; for MIC: Candida albicans, RPMI media
Outline: as §1

C. parapsilosis = test: Minimum inhibitory concentration, RPMI medium; assay type: cell-based; settings: banded MIC grade; for MIC: Lodderomyces parapsilosis, RPMI media
Outline: as §1

Aspergillus terreus = test: Minimum inhibitory concentration, YAG medium; assay type: cell-based; settings: banded MIC grade
Outline: (§2)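 Compound from a 5 mg/mL DMSO stock was further diluted in sterile water, then serially doubled in water and plated with Aspergillus spp. spores. After 24 hrs at 35° C, growth was monitored by optical density at 485 nm; MICs are given in mg/L.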

Aspergillus niger = test: Minimum inhibitory concentration, YAG medium; assay type: cell-based; settings: banded MIC grade
Outline: as §2

Aspergillus flavus = test: Minimum inhibitory concentration, YAG medium; assay type: cell-based; settings: banded MIC grade
Outline: as §2

A. terreus 49 = test: Minimum inhibitory concentration, YAG medium; assay type: cell-based, Aspergillus terreus; settings: banded MIC grade
Outline: as §2

Aspergillus fumigatus = test: Minimum inhibitory concentration, YAG medium; assay type: cell-based; settings: banded MIC grade
Outline: (§3)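 MICs (mg/L) reflect >70% inhibition of OD485 growth versus untreated control after 24 hrs at 35° C in YAG medium, spore inoculum 1-2×10^4 cfu/mL, drug range 50-0.05 mg/L.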

A. fumigatus 210 = test: Minimum inhibitory concentration, YAG medium; assay type: cell-based, Aspergillus fumigatus; settings: banded MIC grade
Outline: as §3

Row | SMILES | MIC grade, C. TROPICALIS, RPMI media (C. tropicalis) | MIC grade, C. ALBICANS, RPMI media (C. albicans) | MIC grade, C. PARAPSILOSIS, RPMI media (C. parapsilosis) | MIC grade, A. TERREUS, YAG media (Aspergillus terreus) | MIC grade, A. NIGER, YAG media (Aspergillus niger) | MIC grade, A. FLAVUS, YAG media (Aspergillus flavus) | MIC grade, A. TERREUS 49, YAG media (A. terreus 49) | MIC grade, A. FUMIGATUS, YAG media (Aspergillus fumigatus) | MIC grade, A. FUMIGATUS 210, YAG media (A. fumigatus 210) | MIC (C. tropicalis; Candida tropicalis, RPMI media) [µg/mL] | MIC (C. albicans; read-out: MIC grade C. ALBICANS) [µg/mL] | MIC (C. albicans; read-out: MIC grade, C. ALBICANS, RPMI media) [µg/mL] | MIC (C. parapsilosis; read-out: MIC grade C. PARAPSILOSIS) [µg/mL] | MIC (C. parapsilosis; read-out: MIC grade, C. PARAPSILOSIS, RPMI media) [µg/mL] | MIC (Aspergillus terreus; Aspergillus terreus, YAG media) [µg/mL] | MIC (Aspergillus niger; Aspergillus niger, YAG media) [µg/mL] | MIC (Aspergillus flavus; Aspergillus flavus, YAG media) [µg/mL] | MIC (A. terreus 49; Aspergillus terreus, 49, YAG media) [µg/mL] | MIC (Aspergillus fumigatus; Aspergillus fumigatus, YAG media) [µg/mL] | MIC (A. fumigatus 210; Aspergillus fumigatus, 210, YAG media) [µg/mL]
1 | COCC1=NN=C(N)SC1 | 2 (2: 5-20 mg/L) | 2 (2: 5-20 mg/L) | 2 (2: 5-20 mg/L) | 2 (2: 1-5 mg/L) | 2 (2: 1-5 mg/L) | 2 (2: 1-5 mg/L) | 2 (2: 1-5 mg/L) | 2 (2: 1-5 mg/L) | 2 (2: 1-5 mg/L) | – | – | – | – | – | – | – | – | – | – | –
2 | COc1ccc(C2=CSC(N)=NN2C)cc1 [5-(4-methoxyphenyl)-4-methyl-1,3,4-thiadiazin-2-amine] | – | – | – | – | – | – | – | – | – | 1 to 5 (≈ 4.25 to 21.2 µM) | < 1 | < 1 | < 1 | < 1 | < 0.2 | < 0.2 | < 0.2 | < 0.2 | < 0.2 | < 0.2
3 | CCc1cccc(OCCCCCC2=NN=C(N)SC2)c1 | 4 (4: <1 mg/L) | 4 (4: <1 mg/L) | 4 (4: <1 mg/L) | 4 (4: <0.2 mg/L) | 4 (4: <0.2 mg/L) | 4 (4: <0.2 mg/L) | 4 (4: <0.2 mg/L) | 4 (4: <0.2 mg/L) | 4 (4: <0.2 mg/L) | – | – | – | – | – | – | – | – | – | – | –
4 | CCCCC/C=C/C1=NN=C(N)SC1 | 1 (1: ≥20 mg/L) | 2 (2: 5-20 mg/L) | 2 (2: 5-20 mg/L) | 2 (2: 1-5 mg/L) | 2 (2: 1-5 mg/L) | 2 (2: 1-5 mg/L) | 2 (2: 1-5 mg/L) | 2 (2: 1-5 mg/L) | 2 (2: 1-5 mg/L) | – | – | – | – | – | – | – | – | – | – | –
5 | COc1cccc(C2=NN=C(N)SC2)c1 | 1 (1: ≥20 mg/L) | 1 (1: ≥20 mg/L) | 1 (1: ≥20 mg/L) | 1 (1: ≥5 mg/L) | 1 (1: ≥5 mg/L) | 1 (1: ≥5 mg/L) | 1 (1: ≥5 mg/L) | 1 (1: ≥5 mg/L) | 1 (1: ≥5 mg/L) | – | – | – | – | – | – | – | – | – | – | –
6 | NC1=NN=C(c2ccc(Cl)c(Cl)c2)CS1 | 1 (1: ≥20 mg/L) | 1 (1: ≥20 mg/L) | 1 (1: ≥20 mg/L) | 1 (1: ≥5 mg/L) | 2 (2: 1-5 mg/L) | 1 (1: ≥5 mg/L) | 1 (1: ≥5 mg/L) | 1 (1: ≥5 mg/L) | 1 (1: ≥5 mg/L) | – | – | – | – | – | – | – | – | – | – | –
7 | NC1=NN=C(CCCCCCOc2ccccc2)CS1 | 4 (4: <1 mg/L) | 3 (3: 1-5 mg/L) | 4 (4: <1 mg/L) | 4 (4: <0.2 mg/L) | 4 (4: <0.2 mg/L) | 4 (4: <0.2 mg/L) | 4 (4: <0.2 mg/L) | 4 (4: <0.2 mg/L) | 4 (4: <0.2 mg/L) | – | – | – | – | – | – | – | – | – | – | –
8 | NC1=NN=C(CCCCCOc2ccccc2)CS1 | 4 (4: <1 mg/L) | 4 (4: <1 mg/L) | 4 (4: <1 mg/L) | 4 (4: <0.2 mg/L) | 4 (4: <0.2 mg/L) | 4 (4: <0.2 mg/L) | 4 (4: <0.2 mg/L) | 4 (4: <0.2 mg/L) | 4 (4: <0.2 mg/L) | – | – | – | – | – | – | – | – | – | – | –
9 | CCCCc1ccc(COCCC2=NN=C(N)SC2)cc1 | 2 (2: 5-20 mg/L) | 2 (2: 5-20 mg/L) | 2 (2: 5-20 mg/L) | 3 (3: 0.2-1 mg/L) | 3 (3: 0.2-1 mg/L) | 3 (3: 0.2-1 mg/L) | 2 (2: 1-5 mg/L) | 1 (1: ≥5 mg/L) | 1 (1: ≥5 mg/L) | – | – | – | – | – | – | – | – | – | – | –
10 | CCCCOC1CCC2=NN=C(N)SC2C1 (centres unmarked) | 1 (1: ≥20 mg/L) | 1 (1: ≥20 mg/L) | 1 (1: ≥20 mg/L) | 2 (2: 1-5 mg/L) | 2 (2: 1-5 mg/L) | 2 (2: 1-5 mg/L) | 2 (2: 1-5 mg/L) | 1 (1: ≥5 mg/L) | 3 (3: 0.2-1 mg/L) | – | – | – | – | – | – | – | – | – | – | –
11 | COCCCCC1=NN=C(N)SC1 | 3 (3: 1-5 mg/L) | 3 (3: 1-5 mg/L) | 4 (4: <1 mg/L) | 3 (3: 0.2-1 mg/L) | 3 (3: 0.2-1 mg/L) | 3 (3: 0.2-1 mg/L) | 3 (3: 0.2-1 mg/L) | 3 (3: 0.2-1 mg/L) | 4 (4: <0.2 mg/L) | – | – | – | – | – | – | – | – | – | – | –
12 | Cc1ccc(COCCC2=NN=C(N)SC2)cc1 | 2 (2: 5-20 mg/L) | 3 (3: 1-5 mg/L) | 3 (3: 1-5 mg/L) | 4 (4: <0.2 mg/L) | 4 (4: <0.2 mg/L) | 3 (3: 0.2-1 mg/L) | 4 (4: <0.2 mg/L) | 4 (4: <0.2 mg/L) | 4 (4: <0.2 mg/L) | – | – | – | – | – | – | – | – | – | – | –
13 | COCCCCOCCC1=NN=C(N)SC1 | 2 (2: 5-20 mg/L) | 3 (3: 1-5 mg/L) | 3 (3: 1-5 mg/L) | 3 (3: 0.2-1 mg/L) | 3 (3: 0.2-1 mg/L) | 3 (3: 0.2-1 mg/L) | 3 (3: 0.2-1 mg/L) | 3 (3: 0.2-1 mg/L) | 3 (3: 0.2-1 mg/L) | – | – | – | – | – | – | – | – | – | – | –
14 | NC1=NN=C(CCCCCOCc2ccccc2)CS1 | 3 (3: 1-5 mg/L) | 3 (3: 1-5 mg/L) | 4 (4: <1 mg/L) | 3 (3: 0.2-1 mg/L) | 3 (3: 0.2-1 mg/L) | 4 (4: <0.2 mg/L) | 4 (4: <0.2 mg/L) | 4 (4: <0.2 mg/L) | 4 (4: <0.2 mg/L) | – | – | – | – | – | – | – | – | – | – | –
15 | CC(C)c1ccc(C2=NN=C(N)SC2)cc1 | 1 (1: ≥20 mg/L) | 1 (1: ≥20 mg/L) | 1 (1: ≥20 mg/L) | 2 (2: 1-5 mg/L) | 1 (1: ≥5 mg/L) | 1 (1: ≥5 mg/L) | 2 (2: 1-5 mg/L) | 1 (1: ≥5 mg/L) | 1 (1: ≥5 mg/L) | – | – | – | – | – | – | – | – | – | – | –
16 | Cc1ccc(OCCC2=NN=C(N)SC2)cc1 | 2 (2: 5-20 mg/L) | 1 (1: ≥20 mg/L) | 4 (4: <1 mg/L) | 3 (3: 0.2-1 mg/L) | 3 (3: 0.2-1 mg/L) | 3 (3: 0.2-1 mg/L) | 3 (3: 0.2-1 mg/L) | 3 (3: 0.2-1 mg/L) | 4 (4: <0.2 mg/L) | – | – | – | – | – | – | – | – | – | – | –
17 | NC1=NN=C2c3ccccc3CCC2S1 (centres unmarked) | 1 (1: ≥20 mg/L) | 1 (1: ≥20 mg/L) | 1 (1: ≥20 mg/L) | 1 (1: ≥5 mg/L) | 1 (1: ≥5 mg/L) | 1 (1: ≥5 mg/L) | 2 (2: 1-5 mg/L) | 2 (2: 1-5 mg/L) | 1 (1: ≥5 mg/L) | – | – | – | – | – | – | – | – | – | – | –
